# Earlier results as cited in patent US20040097599A1, “Antibacterial and antifungal compositions based on branched C-11 alcohols” (priority 2001, published 2004).
# System: Streptococcus mutans
# Settings: towards Streptococcus mutans; J. Agric. Food Chem. 1993, 41, 2447-2450
row,SMILES,MIC (Minimum Inhibitory Concentration)
1,CCCCCCCCCCCCCO [1-tridecanol],6.25 µg/mL
2,CCCCCCCCCCCCO [1-dodecanol],6.25 µg/mL
